The text below walks through data of paper PMC5829162, “Rational Design, Synthesis and Biological Evaluation of Pyrimidine-4,6-diamine derivatives as Type-II inhibitors of FLT3 Selective Against c-KIT” (Scientific Reports, 2018).

A word on the GI50: it is the concentration at which growth is held to half of that of the control. What is called IC50 is the point on the concentration scale where inhibition reaches its midpoint. The inhibition is how much of the control response was suppressed. High values mean a strong effect, low ones a weak effect.

Values joined by “and” are separate entries in the source; they are usually repeats but may differ in a detail not shown here. Equal values may be shown once. Read-outs that look alike come from different tables or passages of the source.

The test system of one assay is Ba/F3 FLT3-ITD. As to the kind of experiment: Cell proliferation (CellTiter-Glo, 48 h), Ba/F3 FLT3-ITD. The class given is cell-based. The source says:
Stable BaF3 populations expressing activated FLT3 were generated by retroviral spinfection with the appropriate mutated plasmid followed by selection and growth factor withdrawal as previously described. The BaF3 cell line was originally obtained from the laboratory of Charles Sawyers and has not been authenticated. MV411 and Molm14 cells were obtained from the laboratory of Scott Kogan and authenticated by Promega STR analysis in June 2013. All cell lines were mycoplasma-free. Cells were incubated with compounds for 48 hours and proliferation was assessed using CellTiter-Glo (Promega; Madison, WI) according to the manufacturer’s recommendation on a SpectraMax M3 microplate reader using SpectraMax Software (Molecular Devices; Sunnyvale, CA). All cell viability data shown is reflective of experiments performed a minimum of three times. […]
S13. Cell Cultures: Stable BaF3 populations expressing activated FLT3 were generated by retroviral spinfection with the appropriate mutated plasmid followed by selection and growth factor withdrawal as previously described .4 The BaF3 cell line was originally obtained from the laboratory of Charles Sawyers and has not been authenticated. MV411 and Molm14 cells were obtained from the laboratory of Scott Kogan and authenticated by Promega STR analysis in June
2013. All cell lines were mycoplasma -free. Cells were incubated with compounds for 48 hours and proliferation was assessed using CellTiter -Glo (Promega; Madison, WI) according to the manufacturer’s recommendation on a SpectraMax M3 microplate reader using SpectraMax Software (Molecular Devices; Sunnyvale, CA). All cell viability data shown is reflective of experiments performed a minimum of three times.

Another assay has as its target RET (Homo sapiens, UniProt P07949). As to the kind of experiment: Biochemical kinase selectivity assay, RET. Particulars: in vitro kinase assay; read-out: RET IC50 (nM) ± SD.
For the next assay, the target named is CSF-1R (Homo sapiens, UniProt P07333). As to the kind of experiment: Biochemical kinase selectivity assay, CSF-1R.
The target in another assay is T1, FLT3D835Y (Homo sapiens, UniProt P36888, D835Y).
T1 construct: the biochemical assay only contains the kinase domain with a single, D835Y point mutation
T1 sequence (P36888 610-943 D835Y limits assumed): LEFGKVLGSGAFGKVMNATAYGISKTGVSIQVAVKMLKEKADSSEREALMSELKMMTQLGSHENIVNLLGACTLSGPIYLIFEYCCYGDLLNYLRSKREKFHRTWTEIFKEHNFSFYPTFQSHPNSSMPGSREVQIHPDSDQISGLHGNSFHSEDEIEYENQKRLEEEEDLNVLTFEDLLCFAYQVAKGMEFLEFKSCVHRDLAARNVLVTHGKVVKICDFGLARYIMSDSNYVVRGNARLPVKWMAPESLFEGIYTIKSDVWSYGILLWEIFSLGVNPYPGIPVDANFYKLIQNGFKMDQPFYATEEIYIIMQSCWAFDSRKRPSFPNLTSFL
The experiment in a line: Biochemical kinase selectivity assay, FLT3 D835Y. The settings on record: in vitro kinase assay; read-out: FLT3D835Y IC50 (nM) ± SD. The method, then: Kinase activity was measured in a microfluidics assay that monitors the separation of a phosphorylated product from substrate[31],[32]. The assay was run using a 12-sipper chip on a Caliper EZ Reader II (PerkinElmer®, Walthman, USA) with separation buffer (100 mM HEPES, 10 mM EDTA, 0.015% Brij-35, 0.1% CR-3 [PerkinElmer®, Walthman, USA]). In 96-well polypropylene plates (Greiner, Frickenhausen, Germany) compound stocks (20 mM in DMSO) were diluted into kinase buffer (50 mM HEPES, 0.075% Brij-35, 0.1% Tween 20, 2 mM DTT, 10 mM MgCl2, and 0.02% NaN3) in 12-point ½log dilutions (2 mM–6.32 nM). After, 1 μL was transferred into a 384-well polypropylene assay plate (Greiner, Frickenhausen, Germany). […] Percent inhibition was measured for each well comparing starting peptide to phosphorylated product peaks relative to the baseline. […] IC50 values were generated in duplicate and error was calculated from the standard deviation between values.
S10. Biochemical Inhibition Assay:1,2 Kinase activity was measured in a microfluidics assay that monitors the separation of a phosphorylated product from substrate. The assay was run using a 12-sipper chip on a Caliper EZ Reader II (PerkinElmer®, Walthman, USA) with separation buffer (100 mM HEPES, 10 mM EDTA, 0.015% Brij-35, 0.1% CR-3 [PerkinElmer®, Walthman, USA]). […]

CSF-1R, sequence (P07333 20-972, species assumed): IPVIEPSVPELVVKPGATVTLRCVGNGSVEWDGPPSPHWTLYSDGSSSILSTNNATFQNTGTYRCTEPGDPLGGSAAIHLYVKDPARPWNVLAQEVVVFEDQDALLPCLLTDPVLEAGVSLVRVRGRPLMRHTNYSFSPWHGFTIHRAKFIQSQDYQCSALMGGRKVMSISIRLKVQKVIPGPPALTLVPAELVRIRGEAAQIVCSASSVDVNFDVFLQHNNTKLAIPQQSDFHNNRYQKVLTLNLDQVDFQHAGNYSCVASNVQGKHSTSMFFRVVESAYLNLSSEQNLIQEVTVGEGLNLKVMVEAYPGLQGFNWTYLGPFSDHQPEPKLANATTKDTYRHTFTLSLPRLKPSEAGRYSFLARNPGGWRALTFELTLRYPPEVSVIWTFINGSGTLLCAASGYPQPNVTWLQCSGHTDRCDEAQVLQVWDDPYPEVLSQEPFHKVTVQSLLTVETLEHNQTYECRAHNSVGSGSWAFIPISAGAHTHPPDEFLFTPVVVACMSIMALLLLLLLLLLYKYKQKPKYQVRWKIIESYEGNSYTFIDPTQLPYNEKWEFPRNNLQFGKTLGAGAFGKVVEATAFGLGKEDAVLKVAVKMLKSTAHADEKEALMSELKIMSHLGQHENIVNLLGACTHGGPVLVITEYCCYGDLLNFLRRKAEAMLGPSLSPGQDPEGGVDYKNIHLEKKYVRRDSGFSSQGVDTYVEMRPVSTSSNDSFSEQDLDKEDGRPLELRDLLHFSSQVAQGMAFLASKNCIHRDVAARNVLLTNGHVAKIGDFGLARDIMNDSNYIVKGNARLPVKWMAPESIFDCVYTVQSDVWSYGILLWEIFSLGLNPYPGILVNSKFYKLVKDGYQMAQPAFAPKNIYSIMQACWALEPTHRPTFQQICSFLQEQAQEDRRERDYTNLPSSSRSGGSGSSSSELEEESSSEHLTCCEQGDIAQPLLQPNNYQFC
RET, sequence (P07949 29-1114, species assumed): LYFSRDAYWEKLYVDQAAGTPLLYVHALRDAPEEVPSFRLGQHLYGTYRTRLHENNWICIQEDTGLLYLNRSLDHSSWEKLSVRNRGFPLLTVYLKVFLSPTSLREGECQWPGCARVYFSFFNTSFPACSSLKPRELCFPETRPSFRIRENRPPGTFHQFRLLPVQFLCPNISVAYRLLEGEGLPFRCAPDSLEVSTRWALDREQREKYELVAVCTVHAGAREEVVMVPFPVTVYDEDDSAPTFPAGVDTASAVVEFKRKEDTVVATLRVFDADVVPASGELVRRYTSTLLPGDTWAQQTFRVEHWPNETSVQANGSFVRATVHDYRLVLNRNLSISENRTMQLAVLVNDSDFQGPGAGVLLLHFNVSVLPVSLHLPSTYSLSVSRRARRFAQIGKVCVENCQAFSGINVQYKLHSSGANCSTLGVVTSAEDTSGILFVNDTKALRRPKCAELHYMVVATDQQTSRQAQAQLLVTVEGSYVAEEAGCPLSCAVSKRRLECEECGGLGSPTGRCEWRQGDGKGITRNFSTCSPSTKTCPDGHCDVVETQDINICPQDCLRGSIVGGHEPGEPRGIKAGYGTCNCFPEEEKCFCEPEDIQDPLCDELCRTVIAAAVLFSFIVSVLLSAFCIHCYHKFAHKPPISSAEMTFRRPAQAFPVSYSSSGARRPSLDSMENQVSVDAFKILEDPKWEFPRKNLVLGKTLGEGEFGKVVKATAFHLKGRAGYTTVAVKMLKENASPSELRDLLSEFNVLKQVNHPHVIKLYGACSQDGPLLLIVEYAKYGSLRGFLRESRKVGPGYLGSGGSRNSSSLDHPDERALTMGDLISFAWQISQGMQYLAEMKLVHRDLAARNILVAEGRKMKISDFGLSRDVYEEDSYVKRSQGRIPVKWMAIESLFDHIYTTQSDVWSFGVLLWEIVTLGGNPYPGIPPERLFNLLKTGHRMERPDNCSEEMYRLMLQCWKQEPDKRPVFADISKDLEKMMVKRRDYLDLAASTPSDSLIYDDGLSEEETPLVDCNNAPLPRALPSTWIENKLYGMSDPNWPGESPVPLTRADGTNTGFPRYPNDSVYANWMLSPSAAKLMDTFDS

`Cn1nc(C(C)(C)C)cc1NC(=O)Cc1ccc(Nc2cc(Nc3ccc(S(C)(=O)=O)cc3)ncn2)cc1` [13a, 2-(4-(6-(4-(Methylsulfonyl)phenylamino)pyrimidin-4-ylamino)phenyl)-N-(3-tert-butyl-1-methyl-1H-pyrazol-5-yl)acetamide] registered a GI50 in the assay on Ba/F3 FLT3-ITD of 131 nM. Further, the IC50 was 4710 ± 342 nM at RET; 13000 nM on CSF-1R (in vitro kinase assay, read-out: CSF-1R IC50 (nM) ± SD); 13000 nM at CSF-1R (read-out: CSF-1R IC50); 72.5 nM and 72 nM at FLT3D835Y.

On to `CC(C)(C)c1cc(NC(=O)Cc2ccc(Nc3cc(Nc4ccc(S(C)(=O)=O)cc4)ncn3)cc2)no1` [13k, 2-(4-(6-(4-(Methylsulfonyl)phenylamino)pyrimidin-4-ylamino)phenyl)-N-(5-tert-butylisoxazol-3-yl)acetamide], for which the GI50 in the assay on Ba/F3 FLT3-ITD is 40.5 nM. For the same compound, the IC50 turned out to be 1660 nM on RET and 13700 ± 234 nM at FLT3D835Y. Besides, at CSF-1R (at 20 µM), the inhibition at 20 µM was found to be 60.7%.
